Laboratory results taken from patent US9255272B2, “Use of inhibitors of leukotriene B4 receptor BLT2 for treating asthma” (Korea University Research & Business Foundation, priority 2007, dated 2016).

How the values were obtained:
OVA-challenged mice = test: Eosinophil infiltration in BAL fluid of OVA-challenged mice; format: in vivo, mouse; details: C57BL/6 mice, 1.6 mg/kg i.v. 24 hr and 1 hr before 10% OVA challenge, 48 hr
Description: (§1) Female BALB/c mice and C57BL/6 mice (7 weeks old; 18-20 g) were obtained from Orientbion Inc. (Seoungnam, Korea). Sensitization and challenge were carried out as described previously with some modification (28). Briefly, female C57BL/6 mice (7 weeks old; 18-20 g) were immunized by intraperitoneal (i.p.) injection of 200 μg ovalbumin (OVA) emulsified in 2.5 mg of adjuvant aluminum hydroperoxide gel (alum) (Pierce, Rockford, Ill.). A second i.p. injection of 20 μg OVA adsorbed onto alum (2.5 mg) was administered 10 days later. After an additional 10 days, mice were exposed to an aerosol of 1% OVA in saline for 30 min daily on 3 consecutive days. On day 25, mice were finally challenged by provocation with 10% OVA aerosol. For inhibition experiments, sense or antisense BLT2 (1.6 mg/kg) was injected intravenously 24 h and then 1 h before the 10% OVA challenge. The mice were then killed on day 27 to assess asthmatic phenotypes. Antisense BLT2 oligonucleotide (5′-[…]-3′ (SEQ ID NO: 15)), sense BLT2 oligonucleotide (5′-[…]-3′ (SEQ ID NO: 16)).
Inflammatory cells in the BAL fluid were collected by centrifugation (1,000 g for 3 min) and washed once in PBS. Cells were counted using a hemocytometer, and viability was assessed by trypan blue exclusion. […]

ROS = ROS levels in BAL fluid cells (DCF fluorescence, FACS); format: in vivo, mouse; details: 1.6 mg/kg i.v. 24 hr and 1 hr before 10% OVA; BAL fluid 48 h after challenge
Description: as §1
ROS levels in BAL fluids were measured as a function of DCF fluorescence as described previously (30). […] DCF fluorescence was excited at 488 nm and the evoked emission was filtered with a 515-nm long-pass filter. […]

Rac = test: Endogenous Rac expression in lung tissue (Western blot); format: in vivo, mouse; details: oligonucleotides injected into tail veins, mice sacrificed after 12 hr
Source text: FIGS. 10a and 10b show activation of Rac in the lung tissue by OVA provocation and inhibition of endogenous Rac expression by antisense Rac oligonucleotide treatment. Lung samples were homogenized with micropestle and washed with PBS twice. FIG. 10a depicts Western blot analysis of Rac expression in mouse model of asthma. For membrane protein preparation, cells were suspended in Buffer A and cells were ruptured by passing through 21-G syringe. After ultracentrifugation, protein samples in pelleted membrane fraction were dissolved with buffer A containing 1% Triton X-100. FIG. 10b depicts Western blot analysis of Rac expression in mouse model of asthma administered with asRac. For whole cell lysate preparation, cells from the lung tissues of buffer, control Rac oligonucleotide or antisense Rac oligonucleotide injected mice were suspended with lysis buffer and incubated for 20 min. After centrifugation of the samples, protein quantification was carried out using Bradford reagent and Western blot analysis was performed.
Oligonucleotides, from Genotech Co. (Korea), were synthesized with a phosphorothioate backbone to improve the resistance to endonuclease. The antisense oligonucleotide consisted of 17 nucleotides analogues to the 5′ end of the murine Rac mRNA sequence, which spans the translation initiation site. […]

BLT2 mRNA = BLT2 mRNA in Rat2-BLT2 stable cells (RT-PCR); format: cell-based; details: transient transfection, 24 h
Description: Suppressed BLT2 expression level was determined by RT-PCR. Rat2-BI_T2 stable cells were plated at a density of 5×10^4 cells/plate on 6 well plates. After 24 hr, cells were transiently transfected with BLT2 specific antisense and sense oligonucleotide plasmid with Lipofectamin reagent and then incubated in fresh DMEM supplemented with 10% FBS for an additional 24 h. After additional incubation, the transfected cells were harvested for BLT2 transcripts analysis. Total RNA was reverse-transcribed and PCR amplify were performed with BLT2 forward primer: 5′-[…]-3′ (SEQ ID NO: 23) and reverse primer: 5′-[…]-3′ (SEQ ID NO: 24). Non-transfected Rat2-BLT2 stable cells cDNA was used the negative control and GAPDH was shown as internal control.

sense BLT2: sense BLT2 oligonucleotide 5′-GGAATGAGACACTACTGAGC-3′ (SEQ ID NO: 16) (listed as DNA, chemistry not given here) [reference compound]
effect on eosinophil infiltration in BAL fluids (in words) (OVA-challenged mice): no inhibitory effect
effect on ROS levels in BAL fluid (in words) (ROS): not

control Rac: control oligonucleotide of same nucleotide composition, 5′-GATCAGTGCACACAGTG-3′ (SEQ ID NO: 21) (listed as DNA, chemistry not given here) [reference compound]
endogenous expression of Rac in the lung tissues (Rac): didn't show significant effect

BLT2 antisense oligonucleotide: BLT2 specific antisense oligonucleotide plasmid transfected into Rat2-BLT2 stable cells (antisense CAGCAGTGTCTCGTT; listed as DNA, chemistry not given here)
level of BLT2 mRNA by RT-PCR (BLT2 mRNA): reduced
